Values quoted from earlier work, collected in US20240100168A1, “LIPID COMPOSITIONS AND METHODS OF PREPARATION THEREOF” (Wake Forest University, priority 2020, published 2024).

Assays:
Settings in all cases: blocks production of pro-inflammatory eicosanoids
COX1 = COX1 (Homo sapiens, UniProt P23219)
lipoxygenases = tested on: lipoxygenases
COX2 = target: T1, COX2 (Homo sapiens, UniProt P35354)
T1 sequence (P35354 18-604): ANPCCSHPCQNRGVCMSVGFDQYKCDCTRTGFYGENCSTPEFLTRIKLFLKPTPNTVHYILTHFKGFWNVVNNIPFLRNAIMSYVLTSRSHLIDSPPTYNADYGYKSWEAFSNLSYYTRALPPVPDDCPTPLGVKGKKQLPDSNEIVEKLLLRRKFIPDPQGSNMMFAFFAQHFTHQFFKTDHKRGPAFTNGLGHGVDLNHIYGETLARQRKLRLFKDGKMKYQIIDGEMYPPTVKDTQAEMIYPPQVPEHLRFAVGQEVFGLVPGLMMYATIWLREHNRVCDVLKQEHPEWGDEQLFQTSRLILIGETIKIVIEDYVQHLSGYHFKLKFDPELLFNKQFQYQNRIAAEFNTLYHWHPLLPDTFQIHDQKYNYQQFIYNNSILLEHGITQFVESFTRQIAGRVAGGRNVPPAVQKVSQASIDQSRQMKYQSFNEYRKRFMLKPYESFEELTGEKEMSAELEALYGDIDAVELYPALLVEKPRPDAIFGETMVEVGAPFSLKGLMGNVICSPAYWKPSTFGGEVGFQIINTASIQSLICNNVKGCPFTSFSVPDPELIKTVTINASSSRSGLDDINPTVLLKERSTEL

COX1, sequence (P23219 24-599): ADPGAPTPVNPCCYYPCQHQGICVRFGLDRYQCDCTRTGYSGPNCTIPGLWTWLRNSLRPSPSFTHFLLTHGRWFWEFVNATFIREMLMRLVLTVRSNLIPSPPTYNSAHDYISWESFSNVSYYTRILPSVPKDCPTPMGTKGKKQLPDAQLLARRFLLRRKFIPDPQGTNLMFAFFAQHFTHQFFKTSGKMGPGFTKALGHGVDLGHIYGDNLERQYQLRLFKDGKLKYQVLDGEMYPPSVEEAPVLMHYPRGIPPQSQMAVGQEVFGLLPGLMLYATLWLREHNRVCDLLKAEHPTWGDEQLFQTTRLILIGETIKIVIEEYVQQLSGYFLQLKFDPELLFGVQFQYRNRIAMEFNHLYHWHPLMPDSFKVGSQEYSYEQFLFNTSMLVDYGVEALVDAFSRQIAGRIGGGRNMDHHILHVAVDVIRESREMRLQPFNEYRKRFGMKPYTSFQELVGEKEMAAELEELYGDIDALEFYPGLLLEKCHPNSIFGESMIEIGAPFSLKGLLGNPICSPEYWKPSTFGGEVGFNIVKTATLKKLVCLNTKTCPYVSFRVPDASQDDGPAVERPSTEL

CC/C=C\C/C=C\C/C=C\C/C=C\CCCCCCC(=O)O [ETA, 8Z,11Z,14Z,17Z-eicosatetraenoic acid]
dual inhibitor: inhibition of COX1 (COX1) | inhibition of lipoxygenases (lipoxygenases) | inhibition of COX2 (COX2)
